Data as given in patent US20140187786A1, “1,3,4-TRISUBSTITUTED BENZENES” (EnVivo Pharmaceuticals, Inc., priority 2007, published 2014).

melting point: 142 to 143 °C
SMILES: CC(C)CC(C(=O)O)c1ccc(-c2ccc(C(F)(F)F)cc2)c(OCC2CC2)c1 (stereo not shown) [Example 142, 2-(2-cyclopropylmethoxy-4′-trifluoromethyl-biphenyl-4-yl)-4-methyl-pentanoic acid]
